PubChem BioAssay (NCI)
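Exposure lasted 48 hours, with cells grown in 96-well plates and compounds tested at five concentrations. GI50: concentration for 50% inhibition of growth. TGI denotes the concentration required for complete inhibition of growth.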

Assays:
Experiment in all cases: DTP human tumour cell line panel, 48 h
786-0 renal = test system: 786-0 renal
A498 renal = test system: A498 renal
A549 NSCLC = test system: A549 NSCLC
ACHN renal = test system: ACHN renal
BT-549 breast = test system: BT-549 breast
CAKI-1 renal = test system: CAKI-1 renal
CCRF-CEM leukemia = test system: CCRF-CEM leukemia
COLO 205 colon = test system: COLO 205 colon
DU-145 prostate = test system: DU-145 prostate
EKVX NSCLC = test system: EKVX NSCLC
HCC-2998 colon = test system: HCC-2998 colon
HCT-116 colon = test system: HCT-116 colon
HCT-15 colon = test system: HCT-15 colon
HL-60(TB) leukemia = test system: HL-60(TB) leukemia
HOP-62 NSCLC = test system: HOP-62 NSCLC
HOP-92 NSCLC = test system: HOP-92 NSCLC
HS 578T breast = test system: HS 578T breast
HT29 colon = test system: HT29 colon
IGROV1 ovarian = test system: IGROV1 ovarian
K-562 leukemia = test system: K-562 leukemia
KM12 colon = test system: KM12 colon
LOX IMVI melanoma = test system: LOX IMVI melanoma
M14 melanoma = test system: M14 melanoma
MALME-3M melanoma = test system: MALME-3M melanoma
MCF7 breast = test system: MCF7 breast
MDA-MB-231 breast = test system: MDA-MB-231 breast
MDA-MB-435 = test system: MDA-MB-435
MOLT-4 leukemia = test system: MOLT-4 leukemia
NCI-H226 lung = test system: NCI-H226 lung
NCI-H23 lung = test system: NCI-H23 lung
NCI-H460 lung = test system: NCI-H460 lung
NCI-H522 lung = test system: NCI-H522 lung
NCI/ADR-RES ovarian = test system: NCI/ADR-RES ovarian
OVCAR-3 ovarian = test system: OVCAR-3 ovarian
OVCAR-4 ovarian = test system: OVCAR-4 ovarian
OVCAR-5 ovarian = test system: OVCAR-5 ovarian
OVCAR-8 ovarian = test system: OVCAR-8 ovarian
PC-3 prostate = test system: PC-3 prostate
RPMI-8226 leukemia = test system: RPMI-8226 leukemia
RXF 393 renal = test system: RXF 393 renal
SF-268 CNS = test system: SF-268 CNS
SF-295 CNS = test system: SF-295 CNS
SF-539 CNS = test system: SF-539 CNS
SK-MEL-2 melanoma = test system: SK-MEL-2 melanoma
SK-MEL-28 melanoma = test system: SK-MEL-28 melanoma
SK-MEL-5 melanoma = test system: SK-MEL-5 melanoma
SK-OV-3 ovarian = test system: SK-OV-3 ovarian
SN12C renal = test system: SN12C renal
SNB-19 CNS = test system: SNB-19 CNS
SNB-75 CNS = test system: SNB-75 CNS
SR leukemia = test system: SR leukemia
T-47D breast = test system: T-47D breast
TK-10 renal = test system: TK-10 renal
U251 CNS = test system: U251 CNS
UACC-257 melanoma = test system: UACC-257 melanoma
UACC-62 melanoma = test system: UACC-62 melanoma
UO-31 renal = test system: UO-31 renal

c1ccc2c(N=NSc3ncnc4nc[nH]c34)c3ccccc3nc2c1
GI50 (786-0 renal): 1790 nM
TGI (786-0 renal): 13.8 µM
GI50 (A498 renal): 1130 nM
TGI (A498 renal): 2600 nM
GI50 (A549 NSCLC): 648 nM
TGI (A549 NSCLC): 3.89 µM
GI50 (ACHN renal): 609 nM
TGI (ACHN renal): 7.03 µM
GI50 (BT-549 breast): 2760 nM
TGI (BT-549 breast): 8.7 µM
GI50 (CAKI-1 renal): 1760 nM
TGI (CAKI-1 renal): 7.07 µM
GI50 (CCRF-CEM leukemia): 1310 nM
TGI (CCRF-CEM leukemia): 6.66 µM
GI50 (COLO 205 colon): 428 nM
TGI (COLO 205 colon): 1760 nM
GI50 (DU-145 prostate): 1400 nM
TGI (DU-145 prostate): 6.63 µM
GI50 (EKVX NSCLC): 2610 nM
TGI (EKVX NSCLC): 12.8 µM
GI50 (HCC-2998 colon): 1490 nM
TGI (HCC-2998 colon): 3.77 µM
GI50 (HCT-116 colon): 530 nM
TGI (HCT-116 colon): 11.6 µM
GI50 (HCT-15 colon): 1150 nM
TGI (HCT-15 colon): 10.2 µM
GI50 (HL-60(TB) leukemia): 3.12 µM
TGI (HL-60(TB) leukemia): 6.96 µM
GI50 (HOP-62 NSCLC): 1200 nM
TGI (HOP-62 NSCLC): 5.71 µM
GI50 (HOP-92 NSCLC): 1790 nM
TGI (HOP-92 NSCLC): 4.77 µM
GI50 (HS 578T breast): 2600 nM
TGI (HS 578T breast): 7.21 µM
GI50 (HT29 colon): 398 nM
TGI (HT29 colon): 2160 nM
GI50 (IGROV1 ovarian): 2730 nM
TGI (IGROV1 ovarian): 8.6 µM
GI50 (K-562 leukemia): 1580 nM
TGI (K-562 leukemia): 11.1 µM
GI50 (KM12 colon): 1610 nM
TGI (KM12 colon): 10.7 µM
GI50 (LOX IMVI melanoma): 643 nM
TGI (LOX IMVI melanoma): 7.14 µM
GI50 (M14 melanoma): 1700 nM
TGI (M14 melanoma): 4.12 µM
GI50 (MALME-3M melanoma): 2010 nM
TGI (MALME-3M melanoma): 4.11 µM
GI50 (MCF7 breast): 370 nM
TGI (MCF7 breast): 10.4 µM
GI50 (MDA-MB-231 breast): 1240 nM
TGI (MDA-MB-231 breast): 6.11 µM
GI50 (MDA-MB-435): 1970 nM
TGI (MDA-MB-435): 6.12 µM
GI50 (MOLT-4 leukemia): 454 nM
TGI (MOLT-4 leukemia): 4.83 µM
GI50 (NCI-H226 lung): 641 nM
TGI (NCI-H226 lung): 2310 nM
GI50 (NCI-H23 lung): 1700 nM
TGI (NCI-H23 lung): 5.76 µM
GI50 (NCI-H460 lung): 877 nM
TGI (NCI-H460 lung): 5.67 µM
GI50 (NCI-H522 lung): 1350 nM
TGI (NCI-H522 lung): 3.36 µM
GI50 (NCI/ADR-RES ovarian): 1190 nM
TGI (NCI/ADR-RES ovarian): 8.39 µM
GI50 (OVCAR-3 ovarian): 2430 nM
TGI (OVCAR-3 ovarian): 8.78 µM
GI50 (OVCAR-4 ovarian): 1630 nM
TGI (OVCAR-4 ovarian): 10.5 µM
GI50 (OVCAR-5 ovarian): 1890 nM
TGI (OVCAR-5 ovarian): 6.3 µM
GI50 (OVCAR-8 ovarian): 1500 nM
TGI (OVCAR-8 ovarian): 2960 nM
GI50 (PC-3 prostate): 1630 nM
TGI (PC-3 prostate): 8.04 µM
GI50 (RPMI-8226 leukemia): 2420 nM
TGI (RPMI-8226 leukemia): 6.82 µM
GI50 (RXF 393 renal): 967 nM
TGI (RXF 393 renal): 2870 nM
GI50 (SF-268 CNS): 1800 nM
TGI (SF-268 CNS): 6.53 µM
GI50 (SF-295 CNS): 1130 nM
TGI (SF-295 CNS): 9.63 µM
GI50 (SF-539 CNS): 1100 nM
TGI (SF-539 CNS): 3.55 µM
GI50 (SK-MEL-2 melanoma): 1640 nM
TGI (SK-MEL-2 melanoma): 3.61 µM
GI50 (SK-MEL-28 melanoma): 1780 nM
TGI (SK-MEL-28 melanoma): 3.71 µM
GI50 (SK-MEL-5 melanoma): 1160 nM
TGI (SK-MEL-5 melanoma): 2390 nM
GI50 (SK-OV-3 ovarian): 1380 nM
TGI (SK-OV-3 ovarian): 14.2 µM
GI50 (SN12C renal): 811 nM
TGI (SN12C renal): 12.8 µM
GI50 (SNB-19 CNS): 1360 nM
TGI (SNB-19 CNS): 13 µM
GI50 (SNB-75 CNS): 1350 nM
TGI (SNB-75 CNS): 2950 nM
GI50 (SR leukemia): 1060 nM
TGI (SR leukemia): 8.17 µM
GI50 (T-47D breast): 1440 nM
TGI (T-47D breast): 11 µM
GI50 (TK-10 renal): 1770 nM
TGI (TK-10 renal): 6.37 µM
GI50 (U251 CNS): 1120 nM
TGI (U251 CNS): 10.9 µM
GI50 (UACC-257 melanoma): 662 nM
TGI (UACC-257 melanoma): 6.56 µM
GI50 (UACC-62 melanoma): 1100 nM
TGI (UACC-62 melanoma): 2630 nM
GI50 (UO-31 renal): 1090 nM
TGI (UO-31 renal): 3.99 µM
